Results: article PMC9952435, “Characterization of Two Novel AmpC Beta-Lactamases from the Emerging Opportunistic Pathogen, Cedecea neteri” (Antibiotics, 2023)
Read-outs that look alike come from different tables or passages of the source.

Key:
[1] = system: rAmpC CNE-2 from C. neteri ATCC 33855; format: biochemical; settings: for Km: Ki or Km,apparent, 200 µM nitrocefin reporter, 500 nM rAmpC, all standard deviations ≤15%
[2] = system: rAmpC CNE-2 from C. neteri ATCC 33855; format: biochemical; settings: nitrocefin as substrate; 500 nM rAmpC, pH 7, 30 °C

## CO/N=C(\C(=O)N[C@@H]1C(=O)N2C(C(=O)O)=C(COC(N)=O)CS[C@H]12)c1ccco1 [Cefuroxime, cefuroxime]
[1]
  Km: 4 µM

## O=C(Cc1cccs1)N[C@@H]1C(=O)N2C(C(=O)O)=C(/C=C/c3ccc([N+](=O)[O-])cc3[N+](=O)[O-])CS[C@H]12 [nitrocefin]
[2]
  Km: 133 ± 11 µM
  kcat: 3.13 ± 0.27 s⁻¹

## Cc1nnc(SCC2=C(C(=O)O)N3C(=O)[C@@H](NC(=O)Cn4cnnn4)[C@H]3SC2)s1 [Cefazolin, cefazolin]
[1]
  Km: 100 µM

## CO[C@@]1(NC(=O)Cc2cccs2)C(=O)N2C(C(=O)O)=C(COC(N)=O)CS[C@@H]21 [Cefoxitin, cefoxitin]
[1]; CNE-2 compared with CDA-1 (ref 13)
  Km, fold higher than for CDA-1 from C. davisae: 100 fold
[1]
  Km: 54 µM

## CC1=C(C(=O)O)N2C(=O)[C@@H](NC(=O)[C@H](N)c3ccccc3)[C@H]2SC1 [Cephalexin, cephalexin]
[1]
  Km: 5 µM

## CC1(C)S[C@@H]2[C@H](NC(=O)[C@H](N)c3ccccc3)C(=O)N2[C@H]1C(=O)O [Ampicillin, ampicillin]
[1]
  Km: 12 µM

## CC1(C)S[C@@H]2[C@H](NC(=O)Cc3ccccc3)C(=O)N2[C@H]1C(=O)O [Penicillin, penicillin]
[1]
  Km: 11 µM

## C[C@@H](O)[C@H]1C(=O)N2C(C(=O)O)=C(SCCN=CN)C[C@H]12 [Imipenem, imipenem]
[1]
  Km: 2 µM
[1]; listed as imipenem
  Km: ~2 µM
